The values below are quoted from earlier work in patent US11708377B2, “Analogues and derivatives of cephalotaxine and methods for making and using the compounds” (Oregon State University, priority 2019, dated 2023).

The test system of one series is leukemia cells. The following applies: background statement, no figure given.
For series [1] the following is noted: background statement; lacks the ester sidechain of HHT.

With `COC(=O)C[C@](O)(CCCC(C)(C)O)C(=O)O[C@@H]1C(OC)=C[C@]23CCCN2CCc2cc4c(cc2[C@H]13)OCO4` [HHT, (−)-Homoharringtonine], the “cytotoxicity against leukemia cells” value in the series with leukemia cells is recorded as “nanomolar cytotoxicity”. With `COC1=C[C@]23CCCN2CCc2cc4c(cc2[C@@H]3[C@@H]1O)OCO4` [Cephalotaxine, (−)-Cephalotaxine], the biological activity result in series [1] was “biologically inactive”.
